Measurements: US20060057236A1, “Process for producing an extract of ivy leaves” (priority 2003, published 2006)

Experiments:
β-adrenergic receptors = assay: inhibition of internalization of β-adrenergic receptors (receptor/ligand complex) into the cell; type: cell-based; conditions: studies carried out by the applicant; result in words
β-adrenergic receptor = assay: direct action on the β-adrenergic receptor; conditions: studies carried out by the applicant; result in words

Structure (SMILES)	inhibition of the process of internalizing β-adrenergic receptors (β-adrenergic receptors)	direct attack on the β-adrenergic receptor (β-adrenergic receptor)
C[C@@H]1O[C@@H](O[C@H]2[C@H](O[C@H]3CC[C@@]4(C)[C@@H](CC[C@]5(C)[C@@H]4CC=C4[C@@H]6CC(C)(C)CC[C@]6(C(=O)O[C@@H]6O[C@H](CO[C@@H]7O[C@H](CO)[C@@H](O[C@@H]8O[C@@H](C)[C@H](O)[C@@H](O)[C@H]8O)[C@H](O)[C@H]7O)[C@@H](O)[C@H](O)[C@H]6O)CC[C@]45C)[C@]3(C)CO)OC[C@H](O)[C@@H]2O)[C@H](O)[C@H](O)[C@H]1O [hederacoside C]	unable to inhibit the process of internalization	–
CC1(C)CC[C@]2(C(=O)O)CC[C@]3(C)C(=CC[C@@H]4[C@@]5(C)CC[C@H](O)[C@@](C)(CO)[C@@H]5CC[C@]43C)[C@@H]2C1 [hederagenin]	unable to inhibit the process of internalization	–
C[C@@H]1O[C@@H](O[C@H]2[C@H](O[C@H]3CC[C@@]4(C)[C@@H](CC[C@]5(C)[C@@H]4CC=C4[C@@H]6CC(C)(C)CC[C@]6(C(=O)O)CC[C@]45C)[C@]3(C)CO)OC[C@H](O)[C@@H]2O)[C@H](O)[C@H](O)[C@H]1O [α-hederin]	inhibits the process of internalizing β-adrenergic receptors in a specific manner	does not attack the β-adrenergic receptor directly
